≈ marks a conversion by molar mass, not a printed value. Read-outs that look alike come from different tables or passages of the source.
Assays:
HSV-1 TK^− B2006 = assay: method of reducing viral plates (plaque reduction); assay type: cell-based; settings: for Relative resistance (RR): IC50 of HSV-1 TK^− B2006 / IC50 of HSV-1 (F)
Method: (§1) According to the present invention, a method of reducing the viral plates comprises the following process: Vero cells monolayers developed in 24 wells microplates are infected with 50 UFP/well of virus in the absence or presence of different compounds concentrations. Each dilution is tested by duplicate. After 1 hour adsorption at 37° C., the inoculum is removed and covered by plating medium (culture media with methylcellulose at a final concentration of 0.7%). Inoculation is continued till the viral plates' appearance, which are then counted after fitting and dying the cells with violet crystal. Moreover, according to the present invention, 50% inhibitory concentration (IC50) means the compound concentration required for reducing about 50% the number of viral plates.
(§2) Thus, preliminary tests of the cloned variants of passages with greater selection pressure of 1C3 (17, 20 and 21) with pyrimidine and purine analogous as aciclovir (ACV) and brivudin (BVDU) would disclose alterations at viral TK level as it is shown in Table VIII, a characteristic that, up to date, has not been published in previous art documents. The TK gene is not essential for the in vitro viral replication, though in vivo, is involved in the virulence, pathogenicity and reactivation since latency (Andrei G et al., 2005). […] Therefore, the selection pressure to which the viruses were subjected could have selected mutations in the TK gene and in additional superimposing genes generating strains with less in vivo pathogenic action (Jacobson J et al., 1993).

1C3-syn-14-1 = assay: method of reducing viral plates (plaque reduction); assay type: cell-based, HSV-1; settings: for Relative resistance (RR): IC50 of clone 1C3 syn 14-1 / IC50 of HSV-1 (F); for susceptibility of variant to drug (in words): variant 1C3-syn-14-1
Method: as §1
(§3) Compounds were present during the viral adsorption (1h, 37° C.) and after the infection. When a cytopathic action (ACP) between 80-90%, during a period among 24 to 72 hours p.i., was observed, cells were lysed with freeze-thawing cycles. In order to remove cellular moieties, the cellular lisate was centrifuged during 10 min at 1000 rpm, keeping the supernatant at −70° C. The supernatant was used to infect a new monolayer in the presence of SAMMA or PRO2000. […] The title and the IC50 of each viral passage was determined by viral plates reduction test (or after 2-3 passages) against SAMMA or PRO20000.

HSV-1 (F) = assay: method of reducing viral plates (plaque reduction); assay type: cell-based
Method: as §1, §3

1C3 syn 20-2 = assay: method of reducing viral plates (plaque reduction); assay type: cell-based, HSV-1; settings: for Relative resistance (RR): IC50 of clone 1C3 syn 20-2 / IC50 of HSV-1 (F)
Method: as §1, §2

1C3 syn 20-3 = assay: method of reducing viral plates (plaque reduction); assay type: cell-based, HSV-1; settings: for IC50: strain 1C3 syn 20-3; for Relative resistance (RR): IC50 of clone 1C3 syn 20-3 / IC50 of HSV-1 (F)
Method: as §1, §2

1C3 syn 20-1 = assay: method of reducing viral plates (plaque reduction); assay type: cell-based, HSV-1; settings: for IC50: strain 1C3 syn 20-1; for Relative resistance (RR): IC50 of clone 1C3 syn 20-1 / IC50 of HSV-1 (F)
Method: as §1, §2

1C3 syn 17-2 = assay: method of reducing viral plates (plaque reduction); assay type: cell-based, HSV-1; settings: for IC50: strain 1C3 syn 17-2; for Relative resistance (RR): IC50 of clone 1C3 syn 17-2 / IC50 of HSV-1 (F)
Method: as §1, §2

1C3 syn 21-2 = assay: method of reducing viral plates (plaque reduction); assay type: cell-based, HSV-1; settings: for IC50: strain 1C3 syn 21-2; for Relative resistance (RR): IC50 of clone 1C3 syn 21-2 / IC50 of HSV-1 (F)
Method: as §1, §2

1C3 syn 21-1 = assay: method of reducing viral plates (plaque reduction); assay type: cell-based, HSV-1; settings: for IC50: strain 1C3 syn 21-1; for Relative resistance (RR): IC50 of clone 1C3 syn 21-1 / IC50 of HSV-1 (F)
Method: as §1, §2

1C3 syn 21-3 = assay: method of reducing viral plates (plaque reduction); assay type: cell-based, HSV-1; settings: for IC50: strain 1C3 syn 21-3; for Relative resistance (RR): IC50 of clone 1C3 syn 21-3 / IC50 of HSV-1 (F)
Method: as §1, §2

1C3 syn 17-3 = assay: method of reducing viral plates (plaque reduction); assay type: cell-based, HSV-1; settings: for IC50: strain 1C3 syn 17-3; for Relative resistance (RR): IC50 of clone 1C3 syn 17-3 / IC50 of HSV-1 (F)
Method: as §1, §2

1C3 syn 17-1 = assay: method of reducing viral plates (plaque reduction); assay type: cell-based, HSV-1; settings: for IC50: strain 1C3 syn 17-1; for Relative resistance (RR): IC50 of clone 1C3 syn 17-1 / IC50 of HSV-1 (F)
Method: as §1, §2

1C3-syn-13-8 = assay: method of reducing viral plates (plaque reduction); assay type: cell-based, HSV-1
Method: as §1, §3

Pro2000-syn13-1 = assay: method of reducing viral plates (plaque reduction); assay type: cell-based, HSV-2
Method: as §1, §3
(§4) By the end of a year, the corresponding virus to passages 13 and 16 in the presence of PRO2000 and SAMMA, respectively, were cloned in monolayers of Vero cells developed in 6 wells plates. The cellular monolayers were infected with a limited dilution of virus and were coated with maintenance media (MM) containing agarose 0.6%. After 2 days incubation, cells were dyed with neutral red and clones were stippled. For clone amplification, Vero cells with each selected clone were infected; after 1 hour adsorption at 37° C., the innoculum was discarded and was covered with MM, subjected to incubation 24-48 h at 37° C. till ACP development was observed.

Pro2000-syn13-9 = assay: method of reducing viral plates (plaque reduction); assay type: cell-based, HSV-2
Method: as §1, §3, §4

SAMMA-15-3 = assay: method of reducing viral plates (plaque reduction); assay type: cell-based, HSV-2
Method: as §1, §3, §4

Pro2000-13-10 = assay: method of reducing viral plates (plaque reduction); assay type: cell-based, HSV-2
Method: as §1, §3, §4

Pro2000-13-5 = assay: method of reducing viral plates (plaque reduction); assay type: cell-based, HSV-2
Method: as §1, §3, §4

SAMMA-15-7 = assay: method of reducing viral plates (plaque reduction); assay type: cell-based, HSV-2
Method: as §1, §3, §4

HSV-2 (G) = assay type: cell-based; settings: virus HSV-2 (G)
Method: as §1, §3

[1] = Human alphaherpesvirus 1, read-out: IC50

## O=c1[nH]c(=O)n([C@H]2C[C@H](O)[C@@H](CO)O2)cc1/C=C/Br [Brivudin, brivudin]
HSV-1 TK^− B2006; Human alphaherpesvirus 1
  IC50: > 0.16 µg/mL
HSV-1 TK^− B2006
  Relative resistance (RR): 16.0
1C3-syn-14-1; Human alphaherpesvirus 1, Table VIII, strain 1C3 syn 14-1, read-out: IC50
  IC50: 0.02 µg/mL (≈ 0.06 µM)
1C3-syn-14-1; Table VIII
  Relative resistance (RR): 2.0
1C3-syn-14-1
  susceptibility of variant to drug (in words): rare resistance
HSV-1 (F); Human alphaherpesvirus 1, Table VIII, strain HSV-1 (F), read-out: IC50
  IC50: 0.01 µg/mL (≈ 0.03 µM)
1C3 syn 20-2; Human alphaherpesvirus 1
  IC50: 0.05 µg/mL (≈ 0.15 µM)
1C3 syn 20-2
  Relative resistance (RR): 5.6
1C3 syn 20-3; [1]
  IC50: 0.06 µg/mL (≈ 0.18 µM)
1C3 syn 20-3
  Relative resistance (RR): 6.0
1C3 syn 20-1; [1]
  IC50: 0.08 µg/mL (≈ 0.24 µM)
1C3 syn 20-1
  Relative resistance (RR): 8.0
1C3 syn 17-2; [1]
  IC50: 0.13 µg/mL (≈ 0.39 µM)
1C3 syn 17-2
  Relative resistance (RR): 13.0
1C3 syn 21-2; [1]
  IC50: 0.06 µg/mL (≈ 0.18 µM)
1C3 syn 21-2
  Relative resistance (RR): 6.0
1C3 syn 21-1; [1]
  IC50: 0.04 µg/mL (≈ 0.12 µM)
1C3 syn 21-1
  Relative resistance (RR): 4.0
1C3 syn 21-3; [1]
  IC50: 0.06 µg/mL (≈ 0.18 µM)
1C3 syn 21-3
  Relative resistance (RR): 6.0
1C3 syn 17-3; [1]
  IC50: 0.08 µg/mL (≈ 0.24 µM)
1C3 syn 17-3
  Relative resistance (RR): 8.0
1C3 syn 17-1; [1]
  IC50: 0.08 µg/mL (≈ 0.24 µM)
1C3 syn 17-1
  Relative resistance (RR): 8.0

## Heparine
HSV-1 TK^− B2006
  Relative resistance (RR): 3.0
HSV-1 TK^− B2006; strain HSV-1 TK^− B2006
  IC50: 3.5 µg/mL
1C3-syn-14-1; Table IV, IC50 of variant 1C3-syn-14-1 / IC50 for HSV-1 (F)
  RR (relative resistance): 2.9
1C3-syn-14-1; Table IV, virus 1C3-syn-14-1
  IC50: 4.1 µg/mL
1C3-syn-14-1; Table VIII
  Relative resistance (RR): 5.7
1C3-syn-14-1; Table VIII, strain 1C3 syn 14-1
  IC50: 7.1 µg/mL
1C3-syn-14-1
  susceptibility of variant to drug (in words): resistant
1C3-syn-13-8; IC50 of variant 1C3-syn-13-8 / IC50 for HSV-1 (F)
  RR (relative resistance): 0.9
1C3-syn-13-8; Table IV, virus 1C3-syn-13-8
  IC50: 1.2 µg/mL
1C3-syn-13-8; variant 1C3-syn-13-8
  susceptibility of variant to drug (in words): sensitive
HSV-1 (F); Table IV, virus HSV-1 (F)
  IC50: 1.4 µg/mL
HSV-1 (F); Table VIII, strain HSV-1 (F)
  IC50: 1.25 µg/mL
Pro2000-syn13-1; IC50 of variant Pro2000-syn13-1 / IC50 for HSV-2 (G)
  RR (relative resistance): 4.3
Pro2000-syn13-1; virus Pro2000-syn13-1
  IC50: 7.8 µg/mL
Pro2000-syn13-9; IC50 of variant Pro2000-syn13-9 / IC50 for HSV-2 (G)
  RR (relative resistance): 10.8
Pro2000-syn13-9; variant Pro2000-syn-13-9
  susceptibility of variant to drug (in words): resistant
Pro2000-syn13-9; virus Pro2000-syn13-9
  IC50: 19.5 µg/mL
SAMMA-15-3; IC50 of variant SAMMA-15-3 / IC50 for HSV-2 (G)
  RR (relative resistance): 4.6
SAMMA-15-3; variant SAMMA-15-3
  susceptibility of variant to drug (in words): resistant
SAMMA-15-3; virus SAMMA-15-3
  IC50: 8.4 µg/mL
Pro2000-13-10; IC50 of variant Pro2000-13-10 / IC50 for HSV-2 (G)
  RR (relative resistance): 1.4
Pro2000-13-10; virus Pro2000-13-10
  IC50: 2.6 µg/mL
Pro2000-13-5; IC50 of variant Pro2000-13-5 / IC50 for HSV-2 (G)
  RR (relative resistance): 1.2
Pro2000-13-5; virus Pro2000-13-5
  IC50: 2.2 µg/mL
SAMMA-15-7; IC50 of variant SAMMA-15-7 / IC50 for HSV-2 (G)
  RR (relative resistance): 6.7
SAMMA-15-7; virus SAMMA-15-7
  IC50: 12.0 µg/mL
HSV-2 (G)
  IC50: 1.8 µg/mL
1C3 syn 20-2
  Relative resistance (RR): > 16.0
1C3 syn 20-2; strain 1C3 syn 20-2
  IC50: > 20 µg/mL
1C3 syn 20-3
  Relative resistance (RR): > 16.0
  IC50: > 20 µg/mL
1C3 syn 20-1
  Relative resistance (RR): > 16.0
  IC50: > 20 µg/mL
1C3 syn 17-2
  Relative resistance (RR): > 16.0
  IC50: > 20 µg/mL
1C3 syn 21-2
  Relative resistance (RR): 8.0
  IC50: 10.0 µg/mL
1C3 syn 21-1
  Relative resistance (RR): 8.0
  IC50: 10.0 µg/mL
1C3 syn 21-3
  Relative resistance (RR): 5.7
  IC50: 7.1 µg/mL
1C3 syn 17-3
  Relative resistance (RR): 5.7
  IC50: 7.1 µg/mL
1C3 syn 17-1
  Relative resistance (RR): 8.0
  IC50: 10.0 µg/mL

From US20100278858A1, “PROCESS FOR PREPARING […] STRAINS” (priority 2007, published 2010)
